From paper PMC8327158, “PEGylated AdipoRon derivatives improve glucose and lipid metabolism under insulinopenic and high-fat diet conditions” (Journal of Lipid Research, 2021)

System: HFD-fed wild-type mice
Experiment: Sphingolipid levels in tissues and serum of HFD-fed mice by mass spectrometry
Assay type: in vivo, mouse
Conditions: average ± SD
Experimental: Six-week-old wild-type male mice were fed HFD for 4 weeks or 7 months In total, 5 mg/Kg of PBS, Adiporon, AdipoRonPEG5, AdipoRonPEG6HTL were injected twice a day for 5 days. After 5 days of treatment, systemic test is performed, and serum (Before and after treatment), subcutaneous, epididymal, liver, heart samples were harvested for qPCR and sphingolipid analysis.
Flash-frozen tissue samples (~40 mg) in a borosilicate glass tube were quenched with 2.0 ml of organic extraction solvent (isopropanol: ethyl acetate, 15:85; v:v) and homogenized with a mechanical tissue disruptor. Immediately afterward, 20 μl of organic internal standard solution was added (Ceramide/Sphingoid Internal Standard Mixture II diluted 1:10 in ethanol). The mixture was vortexed for 20 s and sonicated in ultrasonic bath for 40 min at 40°C. The organic extract was allowed to reach room temperature, and 1.5 ml of HPLC water was added and a two-phase liquid-liquid extraction was performed. The upper phase was transferred to a new clean tube, and the lower aqueous phase containing the protein pellet was re-extracted with additional 2.0 ml of organic extraction solvent. The organic phases were combined and dried under nitrogen stream at 40°C. Dried extracts were stored at –80°C until analysis. For analysis of ceramides and sphingoid base species, the dried residues were reconstituted in 200 μl of methanol. Sphingomyelins required a sample dilution of 1:50 in methanol prior to analysis. Serum sphingolipids were extracted using a similar methodology requiring 25 μl of serum.
Liver, subcutaneous adipose tissue, pancreas, pancreatic islets were initially homogenized in 500 μl of cold PBS using an ultrasonic probe disruptor and keeping the sample on ice during sonication. In total, 50 μl of aqueous homogenate was aliquoted for protein determination. In total, 400 μl of the lysate was immediately quenched in 2.0 ml of organic extraction solvent.
In total, 5 μl of reconstituted samples was injected into an LC/MS/MS system for the analysis of ceramides and sphingoid bases, and 1 μl injection was required for the analysis of sphingomyelins. The system consisted of a Shimadzu LCMS-8050 triple-quadrupole mass spectrometer with the dual ion source operating in electrospray positive ionization mode. The mass spectrometer is coupled to a Shimadzu Nexera X2 UHPLC system equipped with three solvent delivery modules LC-30AD, three degassing units DGU-20A5R, an autosampler SIL-30ACMP, and a column oven CTO-20AC operating at 40°C (Shimadzu Scientific Instruments, Columbia, MD). Six sphingoid bases (d18:1 sphingosine, d18:1 sphingosine-1-phosphate, d18:1 deoxysphingosine, d18:0 sphinganine, d18:0 sphinganine-1-phosphate, d18:0 deoxysphinganine) and […] ceramide species and their metabolites (C16:0, C16:0 dihydroceramide, C16:0 glucosylceramide, C16:0 lactosylceramide, C16:0 sphingomyelin, C18:0, C18:0 dihydroceramide, C18:0 glucosylceramide, C18:0 sphingomyelin, C18:1, C20:0, C22:0, C22:0 glucosylceramide, C24:0, C24:0 dihydroceramide, C24:0 lactosylceramide, C24:0 sphingomyelin, C24:1, C24:1 dihydroceramide, C24:1 glucosylceramide, C24:1 sphingomyelin). Quantitative analysis of sphingolipids was achieved using selective reaction monitoring scan mode. Lipid separation was achieved by reverse phase LC on a 2.1 (i.d.) × 150 mm Ascentis Express C8, 2.7 micron (Supelco, Bellefonte, PA) column under gradient elution, using three different mobile phases: eluent A consisting of methanol/water/formic acid, 600/400/0.8, v/v/v with 5 mM ammonium formate, eluent B consisting of methanol/formic acid, 1,000/0.8, v/v with 5 mM ammonium formate, and eluent C consisting of CH3OH/CH2Cl2 350/650. The concentration of each metabolite was determined according to calibration curves using the peak-area ratio of analyte versus corresponding internal standard. Calibration curves were generated using serial dilutions of each target analyte.

[1] = scWAT, 5 mg/kg twice a day 5 days
[2] = serum at day 0 (before treatment)
[3] = serum at day 5, 5 mg/kg twice a day 5 days

SMILES: O=C(COc1ccc(C(=O)c2ccccc2)cc1)NC1CCN(Cc2ccc(OCCOCCOCCOCCOCCO)cc2)CC1 [AdipoRonPEG5]
- Hexosyl 16:0 [1]: 1715352.2 ± 544724.48 pg/mg
- Hexosyl 18:0 [1]: 988756.1 ± 523374.82 pg/mg
- Hexosyl 20:0 [1]: 624871.6 ± 310850.97 pg/mg
- Hexosyl 22:0 [1]: 5932684.2 ± 2348171.67 pg/mg
- Hexosyl 24:0 [1]: 25627611.9 ± 14360009.57 pg/mg
- Hexosyl 24:1 [1]: 13838465.2 ± 7503242.47 pg/mg
- Lactosyl 16:0 [1]: 44866.5 ± 53044.09 pg/mg
- Lactosyl 18:0 [1]: 0.0 ± 0.0 pg/mg
- Lactosyl 22:0 [1]: 41846.1 ± 19236.41 pg/mg
- Lactosyl 24:1 [1]: 71016.8 ± 18649.91 pg/mg
- Lactosyl C24:0 [1]: 41489.9 ± 21166.47 pg/mg
- Sphingaine1P [1]: 40997.6 ± 18111.26 pg/mg
- Sphinganine [1]: 35831.5 ± 25048.56 pg/mg
- Sphingosine [1]: 65862.8 ± 45362.44 pg/mg
- Sphingosine1P [1]: 45575.1 ± 20925.35 pg/mg
- dCer 16:0 [1]: 12585.7 ± 3750.43 pg/mg
- dCer 18:0 [1]: 16110.9 ± 4383.33 pg/mg
- dCer 20:0 [1]: 82646.0 ± 51960.31 pg/mg
- dCer 22:0 [1]: 65558.1 ± 8753.52 pg/mg
- dCer 24:0 [1]: 87756.9 ± 10704.97 pg/mg
- dCer 24:1 [1]: 103545.6 ± 21754.88 pg/mg
- Cer 14:0 [2]: 9547.7 ± 2338.7 pg/mg
- Cer 16:0 [2]: 29166.2 ± 4917.61 pg/mg
- Cer 18:0 [2]: 8552.2 ± 1447.69 pg/mg
- Cer 18:1 [2]: 0 pg/mg
- Cer 20:0 [2]: 161041.9 ± 19909.93 pg/mg
- Cer 22:0 [2]: 2248954.3 ± 477468.89 pg/mg
- Cer 24:0 [2]: 1497571.4 ± 240898.06 pg/mg
- Cer 24:1 [2]: 1109542.1 ± 131449.16 pg/mg
- Cer 26:0 [2]: 11416.3 ± 5402.24 pg/mg
- Cer 26:1 [2]: 0 pg/mg
- DeoxySphinganie [2]: 0.0 ± 0.0 pg/mg
- Deoxysphingosine [2]: 0.0 ± 0.0 pg/mg
- Hexosyl 14:0 [2]: 2960.2 ± 1473.95 pg/mg
- Hexosyl 16:0 [2]: 3186431.1 ± 124319.92 pg/mg
- Hexosyl 18:0 [2]: 50804.8 ± 12885.62 pg/mg
- Hexosyl 20:0 [2]: 212177.0 ± 30736.45 pg/mg
- Hexosyl 22:0 [2]: 12426084.7 ± 1134587.25 pg/mg
- Hexosyl 24:0 [2]: 1547284.6 ± 152581.98 pg/mg
- Hexosyl 24:1 [2]: 4176146.7 ± 370105.27 pg/mg
- Lactosyl 16:0 [2]: 97139.2 ± 3984.55 pg/mg
- Lactosyl 18:0 [2]: 0.0 ± 0.0 pg/mg
- Lactosyl 22:0 [2]: 67539.8 ± 8954.59 pg/mg
- Lactosyl 24:1 [2]: 91085.1 ± 17618.54 pg/mg
- Lactosyl C24:0 [2]: 106966.9 ± 12842.2 pg/mg
- Sphingaine1P [2]: 236098.7 ± 23069.11 pg/mg
- Sphinganine [2]: 40000.3 ± 8021.4 pg/mg
- Sphingosine [2]: 34674.5 ± 9280.02 pg/mg
- Sphingosine1P [2]: 626634.8 ± 40618.85 pg/mg
- dCer 16:0 [2]: 19797.0 ± 3523.66 pg/mg
- dCer 18:0 [2]: 11474.0 ± 1631.86 pg/mg
- dCer 20:0 [2]: 4088.3 ± 831.07 pg/mg
- dCer 22:0 [2]: 358570.9 ± 58282.32 pg/mg
- dCer 24:0 [2]: 224332.4 ± 35925.97 pg/mg
- dCer 24:1 [2]: 127711.1 ± 26772.71 pg/mg
- Cer 14:0 [3]: 9929.6 ± 3137.7 pg/mg
- Cer 16:0 [3]: 15778.4 ± 1918.13 pg/mg
- Cer 18:0 [3]: 13708.7 ± 1433.97 pg/mg
- Cer 18:1 [3]: 0 pg/mg
- Cer 20:0 [3]: 132529.6 ± 32152.61 pg/mg
- Cer 22:0 [3]: 1388023.2 ± 196403.0 pg/mg
- Cer 24:0 [3]: 1824217.1 ± 192203.29 pg/mg
- Cer 24:1 [3]: 1024425.3 ± 215659.12 pg/mg
- Cer 26:0 [3]: 16852.6 ± 6836.06 pg/mg
- Cer 26:1 [3]: 0 pg/mg
- DeoxySphinganie [3]: 0.0 ± 0.0 pg/mg
- Deoxysphingosine [3]: 0.0 ± 0.0 pg/mg
- Hexosyl 14:0 [3]: 2152.8 ± 1534.14 pg/mg
- Hexosyl 16:0 [3]: 4458327.8 ± 279958.81 pg/mg
- Hexosyl 18:0 [3]: 102580.4 ± 20477.28 pg/mg
- Hexosyl 20:0 [3]: 312105.6 ± 82139.38 pg/mg
- Hexosyl 22:0 [3]: 7780658.1 ± 1388198.99 pg/mg
- Hexosyl 24:0 [3]: 1624021.9 ± 177684.63 pg/mg
- Hexosyl 24:1 [3]: 3454314.7 ± 273336.65 pg/mg
- Lactosyl 16:0 [3]: 90624.9 ± 13005.26 pg/mg
- Lactosyl 18:0 [3]: 0.0 ± 0.0 pg/mg
- Lactosyl 22:0 [3]: 65007.0 ± 14500.42 pg/mg
- Lactosyl 24:1 [3]: 157880.8 ± 14580.32 pg/mg
- Lactosyl C24:0 [3]: 128620.1 ± 18235.69 pg/mg
- Sphingaine1P [3]: 512041.7 ± 138152.22 pg/mg
- Sphinganine [3]: 15276.5 ± 1962.03 pg/mg
- Sphingosine [3]: 21363.8 ± 828.59 pg/mg
- Sphingosine1P [3]: 1121550.6 ± 208889.89 pg/mg
- dCer 16:0 [3]: 3599.4 ± 848.4 pg/mg
- dCer 18:0 [3]: 4287.0 ± 935.1 pg/mg
- dCer 20:0 [3]: 2230.0 ± 831.07 pg/mg
- dCer 22:0 [3]: 88406.3 ± 22461.25 pg/mg
- dCer 24:0 [3]: 67386.7 ± 20818.51 pg/mg
- dCer 24:1 [3]: 33950.3 ± 10616.3 pg/mg
